Measurements published in the NIST ThermoML archive (doi:10.1016/j.jct.2008.01.024).
± gives the expanded uncertainty stated by the source.

What was measured:
[1] = Liquid; for mass density: 298.15 K, 101.33 kPa; for vapor or sublimation pressure: Ebulliometric method (Recirculating still)
[2] = excess molar enthalpy (molar enthalpy of mixing); xn = mol fraction of the nth substance listed; settings: 101 kPa, Liquid, Flow calorimetry

ClCCCCCCCl [1,6-dichlorohexane]
Settings	mass density [kg/m3]
[1]	1063.7 ± 2

CCCCCCCl [1-chlorohexane]
Settings	mass density [kg/m3]
[1]	873.21 ± 0.83

Settings	vapor or sublimation pressure [kPa]
[1], 313.15 K	2.857 ± 0.009

CCCCCCCCCl [1-chlorooctane] + CN1CCCC1=O
[2]
Settings	excess molar enthalpy [kcal/mol]
298.15 K, x2 = 0.073	0.0229 ± 0.00143
298.15 K, x2 = 0.121	0.0473 ± 0.00143
298.15 K, x2 = 0.217	0.0887 ± 0.00143
298.15 K, x2 = 0.314	0.12 ± 0.00143
298.15 K, x2 = 0.411	0.141 ± 0.00143
298.15 K, x2 = 0.507	0.152 ± 0.00167
298.15 K, x2 = 0.604	0.154 ± 0.00167
298.15 K, x2 = 0.701	0.143 ± 0.00167
298.15 K, x2 = 0.798	0.12 ± 0.00167
298.15 K, x2 = 0.895	0.076 ± 0.00167
298.15 K, x2 = 0.943	0.0423 ± 0.00167
308.15 K, x2 = 0.068	0.0268 ± 0.00143
308.15 K, x2 = 0.116	0.0533 ± 0.00143
308.15 K, x2 = 0.213	0.098 ± 0.00143
308.15 K, x2 = 0.309	0.132 ± 0.00167
308.15 K, x2 = 0.406	0.155 ± 0.00167
308.15 K, x2 = 0.504	0.167 ± 0.00167
308.15 K, x2 = 0.602	0.1678 ± 0.00167
308.15 K, x2 = 0.7	0.156 ± 0.00167
308.15 K, x2 = 0.799	0.129 ± 0.00167
308.15 K, x2 = 0.898	0.081 ± 0.00167
308.15 K, x2 = 0.948	0.0449 ± 0.00191
308.15 K, x2 = 0.968	0.0263 ± 0.00215

CN1CCCC1=O [N-methylpyrrolidone]
Settings	mass density [kg/m3]
[1]	1028.55 ± 0.6

CCCCCl [1-chlorobutane]
Settings	mass density [kg/m3]
[1]	880.72 ± 0.21

Settings	vapor or sublimation pressure [kPa]
[1], 313.15 K	25.72 ± 0.028

CCCCCCCCCl [1-chlorooctane]
Settings	mass density [kg/m3]
[1]	868.98 ± 1.6

ClCCCl [1,2-dichloroethane] + CN1CCCC1=O
excess molar enthalpy [kcal/mol], [2]
Settings	298.15 K	308.15 K
x2 = 0.057	-0.0545 ± 0.00263	–
x2 = 0.058	–	-0.0578 ± 0.00263
x2 = 0.105	-0.111 ± 0.00239	–
x2 = 0.107	–	-0.113 ± 0.00239
x2 = 0.203	-0.198 ± 0.00239	–
x2 = 0.207	–	-0.202 ± 0.00239
x2 = 0.301	-0.2624 ± 0.00239	–
x2 = 0.307	–	-0.266 ± 0.00239
x2 = 0.4	-0.2949 ± 0.00239	–
x2 = 0.407	–	-0.2985 ± 0.00263
x2 = 0.5	-0.3021 ± 0.00263	–
x2 = 0.507	–	-0.3043 ± 0.00263
x2 = 0.601	-0.2825 ± 0.00239	–
x2 = 0.607	–	-0.2837 ± 0.00239
x2 = 0.702	-0.238 ± 0.00239	–
x2 = 0.708	–	-0.238 ± 0.00239
x2 = 0.805	-0.175 ± 0.00215	–
x2 = 0.808	–	-0.174 ± 0.00215
x2 = 0.909	-0.0935 ± 0.00215	-0.0927 ± 0.00215
x2 = 0.95	–	-0.0523 ± 0.00215
x2 = 0.961	-0.0433 ± 0.00215	–
x2 = 0.97	–	-0.0344 ± 0.00215

CCCCCCCl [1-chlorohexane] + CN1CCCC1=O
excess molar enthalpy [kcal/mol], [2]
Settings	298.15 K	308.15 K
x2 = 0.062	–	0.0165 ± 0.0012
x2 = 0.064	0.0127 ± 0.0012	–
x2 = 0.111	–	0.0349 ± 0.0012
x2 = 0.113	0.0287 ± 0.0012	–
x2 = 0.208	–	0.0652 ± 0.0012
x2 = 0.21	0.0554 ± 0.0012	–
x2 = 0.306	–	0.0891 ± 0.00143
x2 = 0.308	0.0774 ± 0.0012	–
x2 = 0.404	–	0.104 ± 0.00143
x2 = 0.406	0.0913 ± 0.0012	–
x2 = 0.502	–	0.112 ± 0.00143
x2 = 0.503	0.0994 ± 0.0012	–
x2 = 0.601	0.1 ± 0.0012	0.112 ± 0.00143
x2 = 0.699	0.093 ± 0.0012	0.103 ± 0.00143
x2 = 0.797	0.0762 ± 0.0012	–
x2 = 0.798	–	0.0841 ± 0.00143
x2 = 0.895	0.0466 ± 0.0012	–
x2 = 0.897	–	0.0507 ± 0.00143
x2 = 0.944	0.0265 ± 0.00143	–
x2 = 0.947	–	0.027 ± 0.00143
x2 = 0.967	–	0.0174 ± 0.00143

ClCCCCCl [1,4-dichlorobutane]
Settings	mass density [kg/m3]
[1]	1133.63 ± 4.8

Settings	vapor or sublimation pressure [kPa]
[1], 323.15 K	2.205 ± 0.011

ClCCCCCCCl [1,6-dichlorohexane] + CN1CCCC1=O
excess molar enthalpy [kcal/mol], [2]
Settings	298.15 K	308.15 K
x2 = 0.041	–	-0.0055 ± 0.000956
x2 = 0.06	–	-0.00789 ± 0.000956
x2 = 0.068	-0.0108 ± 0.000956	–
x2 = 0.109	–	-0.0148 ± 0.000956
x2 = 0.116	-0.0191 ± 0.000956	–
x2 = 0.207	–	-0.0244 ± 0.000956
x2 = 0.212	-0.0311 ± 0.000956	–
x2 = 0.305	–	-0.0325 ± 0.000956
x2 = 0.309	-0.0404 ± 0.0012	–
x2 = 0.403	–	-0.037 ± 0.000956
x2 = 0.405	-0.0457 ± 0.0012	–
x2 = 0.502	–	-0.0387 ± 0.000956
x2 = 0.503	-0.0478 ± 0.0012	–
x2 = 0.6	-0.0457 ± 0.0012	-0.0363 ± 0.000956
x2 = 0.699	-0.0394 ± 0.0012	-0.032 ± 0.000956
x2 = 0.797	-0.0294 ± 0.000956	–
x2 = 0.799	–	-0.0241 ± 0.000956
x2 = 0.896	-0.0155 ± 0.000956	–
x2 = 0.898	–	-0.0127 ± 0.000956
x2 = 0.946	-0.00765 ± 0.000956	–
x2 = 0.948	–	-0.00598 ± 0.000956
x2 = 0.968	–	-0.00335 ± 0.000956

ClCCCl [1,2-dichloroethane]
Settings	mass density [kg/m3]
[1]	1245.6 ± 0.76

Settings	vapor or sublimation pressure [kPa]
[1], 313.15 K	20.75 ± 0.025

CCCCCl [1-chlorobutane] + CN1CCCC1=O
[2]
Settings	excess molar enthalpy [kcal/mol]
298.15 K, x2 = 0.063	0.00454 ± 0.000956
298.15 K, x2 = 0.113	0.0098 ± 0.000956
298.15 K, x2 = 0.213	0.0194 ± 0.000956
298.15 K, x2 = 0.312	0.027 ± 0.000956
298.15 K, x2 = 0.411	0.0327 ± 0.000956
298.15 K, x2 = 0.51	0.0363 ± 0.000956
298.15 K, x2 = 0.608	0.037 ± 0.000956
298.15 K, x2 = 0.706	0.0347 ± 0.000956
298.15 K, x2 = 0.804	0.0284 ± 0.000956
298.15 K, x2 = 0.901	0.0167 ± 0.000956
298.15 K, x2 = 0.949	0.00908 ± 0.000956
308.15 K, x2 = 0.06	0.00813 ± 0.000956
308.15 K, x2 = 0.11	0.0153 ± 0.000956
308.15 K, x2 = 0.208	0.0275 ± 0.000956
308.15 K, x2 = 0.307	0.0363 ± 0.000956
308.15 K, x2 = 0.406	0.0421 ± 0.0012
308.15 K, x2 = 0.504	0.0457 ± 0.0012
308.15 K, x2 = 0.603	0.0457 ± 0.0012
308.15 K, x2 = 0.701	0.0421 ± 0.0012
308.15 K, x2 = 0.799	0.0339 ± 0.000956
308.15 K, x2 = 0.897	0.0198 ± 0.000956
308.15 K, x2 = 0.946	0.011 ± 0.000956
308.15 K, x2 = 0.965	0.00598 ± 0.0012

ClCCCCCl [1,4-dichlorobutane] + CN1CCCC1=O
[2]
Settings	excess molar enthalpy [kcal/mol]
298.15 K, x2 = 0.064	-0.0301 ± 0.00143
298.15 K, x2 = 0.113	-0.0535 ± 0.00143
298.15 K, x2 = 0.21	-0.097 ± 0.00143
298.15 K, x2 = 0.308	-0.131 ± 0.00167
298.15 K, x2 = 0.406	-0.152 ± 0.00167
298.15 K, x2 = 0.505	-0.162 ± 0.00167
298.15 K, x2 = 0.604	-0.158 ± 0.00167
298.15 K, x2 = 0.703	-0.139 ± 0.00167
298.15 K, x2 = 0.803	-0.107 ± 0.00167
298.15 K, x2 = 0.903	-0.0605 ± 0.00143
298.15 K, x2 = 0.954	-0.032 ± 0.00143
308.15 K, x2 = 0.06	-0.028 ± 0.00143
308.15 K, x2 = 0.109	-0.0523 ± 0.00143
308.15 K, x2 = 0.207	-0.0942 ± 0.00143
308.15 K, x2 = 0.305	-0.125 ± 0.00143
308.15 K, x2 = 0.403	-0.147 ± 0.00167
308.15 K, x2 = 0.501	-0.156 ± 0.00167
308.15 K, x2 = 0.599	-0.152 ± 0.00167
308.15 K, x2 = 0.698	-0.135 ± 0.00167
308.15 K, x2 = 0.797	-0.103 ± 0.00143
308.15 K, x2 = 0.895	-0.0586 ± 0.00143
308.15 K, x2 = 0.945	-0.0294 ± 0.00143
308.15 K, x2 = 0.964	-0.0189 ± 0.00143
